Patent US20090137784A1, “Epidermal Growth Factor Receptor Polypeptides and Antibodies” (priority 2005, published 2009)
*: point of attachment. Biotin = O=C1N[C@H]2[C@H](CS[C@H]2CCCCC(=O)*)N1

Legend:
Type in all cases: cell-based
EGFR [1] = molecular target: T1, EGFR (Homo sapiens, UniProt P00533); experiment: Biotinylated cyclic polypeptides tested for inhibition of EGFR phosphorylation in a model HMEC cell system; settings: biotinylated cyclic polypeptide
T1 construct: endogenous in cells; host or cells: 184A1 human mammary epithelial cells (parental HMEC); also 24H HMEC line (overexpresses HER2)
Source text: We selected amino acid sequences corresponding to fragments of Domain II and Domain IV of EGFR. The sequence of each polypeptide is shown in the first column of Table 1. The polypeptides were chosen based on their positions on the crystal structures of monomeric and dimeric EGFR (Burgess et al, Mol. Cell. 12:541-552, 2003). Although Domain IV of EGFR is not resolved in the dimer crystal structure, it is believed that portions of Domain IV come into contact upon dimerization. […] We generated biotinylated cyclic polypeptides that included each sequence and tested them in a model HMEC cell system. The sequences of the biotinylated cyclic polypeptides are shown in the third column of Table 1. […] For the LYNPTTYQMD polypeptide, the different results obtained from polypeptide and polyclonal antisera inhibition could be due to differences in the quantitative details of the assays, or the polypeptide could have a lower affinity for the receptor than the polyclonal antisera does.

EGFR [2] = molecular target: T1, EGFR; experiment: Quantitative Western blot of EGFR tyrosine 1173 phosphorylation in HMECs treated with rabbit polyclonal antisera; settings: for relative EGFR tyrosine 1173 phosphorylation: HMECs, 2 hours with antisera, then 25 nM EGF for 5 minutes, FIG. 1; for Polyclonal antisera inhibition (EGFR phosphorylation): rabbit polyclonal antisera, 184A1 human mammary epithelial cells
Description: Anti-domain II and anti-domain IV rabbit polyclonal antisera were generated against polypeptides LYNPTTYQMD (SEQ ID NO: 1) and MGENNT (SEQ ID NO:4). Briefly, rabbits were injected with one of the peptides, and the resulting antisera were collected. The rabbit sera were purified by ammonium sulfate precipitation followed by desalting. These polyclonal antisera were then used to treat human mammary epithelial cells (HMECs) and to measure the antisera's effect on EGFR tyrosine 1173 phosphorylation by quantitative Western blot analysis. HMECs were grown to 80% confluence and incubated for 2 hours in serum-free media containing various concentrations of the rabbit polyclonal antisera. The cells were then washed and incubated with 25 nM EGF for 5 minutes. The cells were lysed, and the proteins in the lysate were run on a SDS-PAGE gel and transferred onto PDVF membranes. Blots were detected using an anti-EGFR phosphotyrosine 1173 antibody and horseradish peroxidase, and band intensity was quantified using Kodak® 1D 3.5 software. The results are shown in FIG. 1 as relative EGFR tyrosine 1173 phosphorylation in the presence of varying concentrations of polyclonal antisera. The tyrosine phosphorylation in the presence of antiserum has been normalized by total EGFR intensity and tyrosine phosphorylation in the absence of antiserum.
Additional quantitative Western blot analysis was performed to examine EGFR 1173 tyrosine phosphorylation and HER21248 tyrosine phosphorylation in normal, parental HMECs, as well as a 24H HMEC line which overexpresses HER2 (Hendriks et al., Cancer Res. 63:1130-1137, 2003). Western blot analysis was described as above, and the results are depicted in FIGS. 3-6. […] P DII and P DIV are the polyclonal antisera against polypeptides LYNPTTYQMD (SEQ ID NO:1) and MGENNT (SEQ ID NO:4), respectively. For comparison, P 225 is a commercially purchased monoclonal antibody that blocks EGFR ligand binding (Sato et al., Mol. Biol. Med. 1:511-529, 1983). Negative controls are indicated by a (−). […] FIGS. 5 and 6 show relative HER2 1248 tyrosine phosphorylation in parental and 24H HMECs, respectively. The results in FIGS. 3-6 indicate that antibodies that bind to polypeptides LYNPTTYQMD (SEQ ID NO:1) and MGENNT (SEQ ID NO:4) of EGFR can reduce both EGFR and HER2 phosphorylation in normal HMECs, as well as those overexpressing HER2.

[3] = molecular target: T2, heterodimerization of HER2 with EGFR (Homo sapiens, UniProt P00533); experiment: Co-immunoprecipitation of HER2 with EGFR from HMEC lysates; settings: HMECs, antiserum 0.1 and 1 μM; FIG. 2
T2 construct: EGFR in each sample was immunoprecipitated from HMEC lysates using an anti-EGFR antibody; endogenous in cells; host or cells: HMEC (human mammary epithelial cells)
Description: Next, we analyzed the amount of HER2 co-immunoprecipitated with EGFR in the presence and absence of rabbit polyclonal antiserum against peptide MGENNT. HMECs were treated as before with the antiserum. EGFR in each sample was immunoprecipitated from HMEC lysates using an anti-EGFR antibody obtained from Santa Cruz Biotechnology, Inc. Immunoprecipitates were resolved by SDS-PAGE and blotted with anti-HER2 antibody (Cell Signaling). The results are depicted in FIG. 2, where N is the non-EGF stimulated negative control, P is the cells with no rabbit antisera incubation, and 0.1 and 1 are the concentrations of rabbit polyclonal antisera in μM.

| Substance | Peptide Inhibition (EGFR phosphorylation) (EGFR [1]) | relative EGFR tyrosine 1173 phosphorylation (EGFR [2]) | Polyclonal antisera inhibition (EGFR phosphorylation) (EGFR [2]) | HER2 co-immunoprecipitated with EGFR [3] |
| --- | --- | --- | --- | --- |
| LYNPTTYQMD [Biotin-GCGLYNPTTYQMDGCG-CONH2] | No |  |  |  |
| CAHYIDGPHC [Biotin-GCAHYIDGPHCG-CONH2] | Yes |  |  |  |
| CRNVSRGREC [Biotin-GCRNVSRGRECG- CONH2] | Yes |  |  |  |
| Biotin-GCGLYNPTTYQMDGCG-NH2 (cysteine pairing not given here) |  | decrease the tyrosine phosphorylation of EGFR | Yes |  |
| LVWKYADAG [Biotin-GCLVWKYADAGCG-CONH2] | Yes |  |  |  |
| Biotin-Aha-CMGENNTG-CONH2 | Yes | decrease the tyrosine phosphorylation of EGFR | Yes | less HER2 is co-immunoprecipitated with EGFR |
